The source of these data is publication PMC5177663 (Frontiers in Pharmacology, 2016).

One series has as its system middle-aged mice. Nature of the series: contextual serial discrimination (CSD) task, contextual memory. Format: in vivo, C57/Bl6 mice. The conditions noted are these: for effect on SCM scores as compared to vehicle: Experiment 1, middle-aged mice, 9 days oral; for strength of contextual memory (SCM) score (% correct responses - % interference responses): Experiment 2, middle-aged mice, NS vs vehicle. The text has this:
The memory task and apparatus has been fully described previously ([Chauveau et al., 2009]). The contextual serial discrimination (CSD) task is based on two successive discriminations in a four-hole board which can be retrieved with the help of specific temporal and contextual cues associated with each of them.
The acquisition phase took place in room A where animals learned two consecutive spatial discriminations (D1 and D2; Figure 1A) which differed by the color and texture of the floor and were separated by a 2-min delay interval. For both D1 and D2, 10 20-mg food pellets were available during the 6-min exploration sessions; for D2 specifically, the baited hole was consistently located in the opposite symmetrical hole. Environmental cues made of colored paper sheets were positioned at 1.00 m above the board. At the end of the acquisition phase, mice returned in the animal’s room for 24 h. Animals retained for the test phase in the present study for both Experiments 1 and 2 have eaten at least 7–8 pellets/10 during both acquisitions.
Mice were replaced on the D1 floor in the board without any pellet in the apparatus and were allowed to freely explore for 6 min during which the number of head-dips in each hole was counted. This allowed measures of the % of “correct responses” (head-dips into the hole previously baited on the same floor-context), the % of “interference responses” (head-dips into the hole previously baited at D2, on the other floor-context) (Figure 1B) and of the “strength” of “contextual memory” score (SCM) (% correct responses - % interference responses). Thus, since correct responses are based on the use of the internal context (color of the floor) and interferent responses are based on the use of spatial allocentric cues previously associated with the other floor, thus the trend of SCM score toward a positive difference represents the gain of internal contextual memory, at the expense of allocentric spatial one.
The two last administrations were delivered 1 h before the acquisition and test phases.
(§1) Independent groups of mice (N = 10 per group) were used. An additional group composed by young vehicle mice (4–5 months young-vehicles, N = 10) was added for determination of the aging effect on both memory and phosphorylated CREB immunoreactivities, as compared to middle-aged Vehicles. For the immunohistochemical study, animals submitted to D1 memory testing were compared to “naïve” mice isolated in the colony room (with N = 5 per group; Naïve condition) and that underwent the food deprivation procedure and drug treatments as behaving animals (Test condition).

Series [1] concerns phosphorylated CREB (pCREB). Put plainly: pCREB immunohistochemistry after behavioral testing. The series is classed as in vivo, C57/Bl6 mice. The note with it: test condition. Here is the method: as §1
Thirty minutes after completion of the test session, mice were deeply anesthetized (Avertin, 10 mL/kg intraperitoneally i.p.), and perfused transcardially with an ice-cold solution of 4% paraformaldehyde in phosphate buffer (0.1 M, pH 7.4). After perfusion, brains were removed and post-fixed overnight in the same fixative at 4°C. Brains were then put in a sucrose solution (30% in Tris Buffer 0.1 M, pH 7.4) during 24 h. They were then frozen and cut in […] coronal free-floating sections with a freezing microtome (Leica) to proceed to immunochemistry.
Total CREB (tCREB) and phosphorylated CREB (pCREB) immunostainings were performed as described in full previously ([Vandesquille et al., 2013]; [Dominguez et al., 2014], [2016]). Countings were made in the following brain regions according to [Paxinos and Franklin (2001)] atlas: the CA1 of the dorsal (dCA1) and ventral (vCA1) hippocampus, the prelimbic cortex (PL), the dorsal striatum (St), the basolateral amygdala nucleus (BLA) and the medial septum nucleus (MS). Digital images were captured at 10X magnification using an Olympus (BX50) and an imaging analysis system (ImageJ®). At least six serial sections for each brain region were analyzed using a computerized image analysis system (Visiolab 2000®, Biocom, and V4.50). Quantification was expressed as mean number of positive nuclei per mm^2.

In series [2] the test system is acetylcholine extracellular levels. Put plainly: intracerebral microdialysis, acetylcholine in mPFC and ventral hippocampus. The note with it: at 30 min. The series is classed as in vivo, Wistar (Han) rats. Here is the method: The locomotor activity of the rats was recorded simultaneously during the sampling as a control method to assess a possible contribution of the handling stress and drug administration to microdialysis data.
Male Wistar (Han) rats, weighting about 265 g, were used for the experiment. At their arrival at facility, rats were housed in humidity and temperature controlled room on a 12h light/dark cycle (light on at 6:00 h) with water and food available ad libitum. Rats were anaesthetized with isoflurane and stereotaxically implanted with two guide cannula: one into the ventral hippocampus (vHPC: Interaural + 3.7 mm, Lateral + 4.8 mm, Ventral -3.8 mm providing the final -8.0 mm for the tip of the microdialysis probe) and the second into the medial prefrontal cortex (mPFC: Interaural + 12.2 mm, Lateral - 0.5 mm, Ventral -1.6 mm providing the final -5.6 mm for the tip of the microdialysis probe). After a recovery of 5 days, a microdialysis probe was inserted into the each respective guide cannula of awake rat. The probes were perfused at a constant flow-rate of 1 µl/min with sterile artificial CSF solution in the absence of an AChE inhibitor (148 mM NaCl, 4 mM KCl, 0.8 mM MgCl2, 1.4 CaCl2, 1.2 mM Na2HPO4, 0.3 mM NaH2PO4, pH 7.2). Following 120-min stabilization period, the samples were collected every 30 minutes. The first 3 samples (-90 to 0 min) were taken for determination of basal extracellular levels of ACh. […] After finalizing the experiment, the animals were sacrificed by an overdose of isoflurane and dislocation of the neck.
The levels of ACh in the microdialysates were determined by high-performance liquid chromatography (HPLC) linked to a postcolumn immobilized enzyme reactor followed by electrochemical detection. Briefly, the HPLC system (HTEC-500, Eicom Corp.) included a pulse-free microflow pump, a degasser and an amperometric detector equipped with a platinum electrode. The potential of the working electrode vs. Ag/AgCl ref. electrode was set to +0.45 V vs. an Ag/AgCl reference elctrode. Samples were injected by use of a CMA/200 Refrigerated Microsampler (CMA/Microdialysis). The chromatograms were recorded and integrated by use of a computerized data acquisition system (DataApex, Prague, Czech Republic). ACh was separated on a 150 x 2.0 I.D. mm narrow-bore column, packed with C18 polymer gel, 4 μm particle size. The enzyme reactor AC-ENZYMPAK II (Eicom Corp.) was used. The mobile phase was a 50 mM potassium hydrogen carbonate buffer containing 3.7 mM sodium 1-octanesulfonate, 0.13 mM EDTA-2Na, final pH 7.2. […] Determination of ACh levels in the groups of rats treated with drugs and vehicle was performed in blind conditions.

Another series deals with mice. Nature of the series: primary observation (IRWIN) test. Format: in vivo. The note with it: pharmacological doses, alone or in combination, data not shown.
The test system of a further series is H3 receptors. The arrangement: method as in Panayi et al., 2014. The note with it: rats, mice, monkeys memory paradigms; ref Panayi et al., 2014; cited from earlier work.
The nature of the next series: in vivo. Here is the method:
The sampling times are 30 min, 1, 2, 4, and 6 h. In each mouse, two time points of blood sampling were performed. Plasma was extracted from the blood sample by centrifugation (+4°C, 3000 g, 10 min) and stored at -80°C. Then, plasma samples were sent in dry ice to MDS (MDS Pharma Services, Switzerland) for the pharmacokinetic analysis.

Where [3] appears, read: middle-aged mice, Donepezil 0.3 mg/kg (ANOVA factor).

For `COc1cc2c(cc1OC)C(=O)C(CC1CCN(Cc3ccccc3)CC1)C2` (centres unmarked) [Donepezil, reference compound], the “effect on SCM scores as compared to vehicle” value in the series with middle-aged mice (Donepezil alone at all doses (0.1 and 0.3 mg/kg)) is “did not show significant effect”. Further, the “strength of contextual memory (SCM) score (% correct responses - % interference responses)” value in the series with middle-aged mice (Donepezil 0.3 mg/kg alone) is “+7.48 ± 3.60”. For the same molecule, in series [1] (Donepezil alone (0.3 mg/kg) as compared to vehicle), the “increase of pCREB expression in the MS” value is given as “+174.3%”. Further, the “effect on pCREB immunopositive cells in the MS” value in series [1] (setting [3]) is on record as “significant increase”. Moreover, in series [1] (setting [3]), the “effect on pCREB immunopositive cells in the dCA1” value is “significant increase”. Also, the “maximal increase of ACh levels” value in series [2] (rat mPFC, Donepezil 0.1 mg/kg i.p.) was 175 % of predrug values; in series [2] (rat mPFC, Donepezil 0.3 mg/kg i.p.), 216 % of predrug values; in series [2] (rat vHPC, Donepezil 0.1 mg/kg i.p.), 180 % of predrug values; in series [2] (rat vHPC, Donepezil 0.3 mg/kg i.p.), 207 % of predrug values.

With `NC(=O)c1ccc(OCCCN2CC3CCCC3C2)cc1` (centres unmarked) [S 38093], the “effect on SCM scores as compared to vehicle” value with middle-aged mice (S 38093 0.1 mg/kg alone) and with middle-aged mice (S 38093 1.0 mg/kg alone) was “did not show significant effect” in each case. Also, the “strength of contextual memory (SCM) score (% correct responses - % interference responses)” value in the series with middle-aged mice (S 38093 0.1 mg/kg alone) is recorded as -14.3 ± 5.76; in the series on middle-aged mice (S 38093 0.3 mg/kg alone) it was “+5.19 ± 6.68”. Also, the “effect on pCREB immunopositive cells in the dCA1 and the MS” value in series [1] (middle-aged mice, S 38093 at both doses (0.1 and 0.3 mg/kg)) is “no significant effect”. In addition, the observable clinical signs entry in the series with mice is recorded as “did not induce any observable clinical signs”. Also, the “mean pharmacological dose with procognitive properties” value in the series with H3 receptors was 0.3 mg/kg. Also, the “maximal increase of ACh levels” value in series [2] (rat mPFC, S 38093 3 mg/kg i.p., n.s.) is on record as 158 % of predrug values; in series [2] (rat mPFC, S 38093 10 mg/kg i.p.), 234 % of predrug values; in series [2] (rat vHPC, S 38093 3 mg/kg i.p.), 153 % of predrug values; in series [2] (rat vHPC, S 38093 10 mg/kg i.p.), 184 % of predrug values. Also, the area under the curve (AUC) in the series “in vivo” (C57/Bl6, mouse, po, 0.1 mg/kg) amounted to 9.56 ng·h/mL; in “in vivo” (C57/Bl6, mouse, po, 1 mg/kg), 92.4 ng·h/mL. Also, the Cmax in “in vivo” (C57/Bl6, mouse, po, 0.1 mg/kg) was 3.04 ng/mL; in “in vivo” (C57/Bl6, mouse, po, 1 mg/kg) it was 55.6 ng/mL. Moreover, the Tl/2 in “in vivo” (C57/Bl6, mouse, po, 1 mg/kg) came to 2.37 h. For the same molecule, in the series “in vivo” (mouse), the “plasma exposure when administered as a combination” value is on record as “no increase”.
